Source: US20070265208A1, “Association of calpain inhibitors and reactive oxygen species trapping agents” (priority 2000, published 2007)

Assays:
[1] = system: rat glial cells C6; test: Protection from necrosis induced by maitotoxin, C6 (wst-1 viability); format: cell-based; conditions: single product at 50 μM, n = 3 for Example 2, else n = 1
Description: Human neuroblastomas SHSY5Y and rat glial cells C6 are seeded at 25 000 cells per well in 96-well plates in DMEM 10% FBS for 24 hours. The L6 rat myoblasts are seeded at 1000 cells per well in DMEM 10% FBS on 96-well microplates coated beforehand with gelatin 0.5% PBS. After culture for 3 days the medium is removed and replaced with a differentiation medium (DMEM+10 μg/ml of insulin+100 μg/ml of transferrin). 50 μl of product A plus 50 μl of solvent or 50 μl of product B are placed in the wells. After incubation for 1 hour at 37° C. under an atmosphere of 5% CO2, 10 μl of maitotoxin is added in order to obtain a final concentration of 0.1 nM to 1 nM (according to the cell type). After incubation for 3 hours at 37° C. under an atmosphere of 5% CO2, the cell viability is determined by adding 10 μl of tetrazolium salts (wst-1, Roche, ref: 1644807). The tetrazolium salts are cleaved into formazan molecules by mitochondrial dehydrogenases. The quantity of formazan formed is directly correlated to the number of metabolically active cells in the culture. Measurement of the absorbance of the formazan is carried out using a multiwell photometer at a wavelength of 420 nm against a reference wavelength of 620 nm.
The theoretical effect was obtained by multiplying the percentage of dead cells in the presence of product A by the percentage of dead cells in the presence of product B (Table 3). The percentage protection against cell death induced by MTX being the percentage of cells kept alive in the presence of the product or products.
In the light of the previous results, the combination of Example 1 with product A and product B at a rate of 100 μM of each of the products is carried out on human neuroblastomas (SHSY5Y; (Table 5A) and on glial cells with 25 μM of product A and 50 μM of product B (C6; Table 5B) on a larger number of cases.

[2] = system: calpain activity in rat glial cells (C6); test: In situ calpain activity in rat glial cells C6 stimulated by maitotoxin; format: cell-based; conditions: read-out: Inhibition human calpain I, in situ (C6) [IC50 (nM)]; n = 3; maitotoxin 1 nM; 1 h 30 min
Description: Human neuroblastomas SHSY5Y and rat glial cells C6 are seeded at a rate of 50,000 and 25,000 cells respectively per well on 96-well plates in DMEM 10% FBS. The next day, the cells which have adhered are washed 3 times in DMEM medium without serum and 40 mM Hepes. 100 microlitres of product B is placed in the wells. After incubation for 1 hour at 37° C. under an atmosphere of 5% CO2, 10 μl containing the fluorescent substrate of calpain (Suc-Leu-Tyr-AMC) and maitotoxin (Sigma, ref: M-9159), in order to obtain a final concentration in the well of 100 μM and of 1 nM respectively are added.
In order to determine the total activity of the cell enzyme, wells containing no product are added to the plate (100 μL DMSO 100th plus 10 μl of MTX and substrate). The background noise is determined by adding control wells with no MTX. Each concentration of the products (0.3 μM to 200 μM for the SHSY5Y's and 0.01 μM to 100 μM for the C6's) is tested in triplicate. The plates are shaken, the fluorescence is read at 380/460 nm using the Victor at T zero. Incubation takes place for four hours for the SHSY5Y and 1 hour 30 minutes for the C6 cells at 30° C. in darkness.

How did the “Protection from necrosis induced by MTX on C6” value (“Protection” for short) [1] turn out when CC(C)C[C@@H](C=O)NC(=O)[C@H](CC(C)C)NC(=O)OCc1ccccc1 [EXAMPLE 1 B, benzyl (1S)-1-({[(1S)-1-formyl-3-methylbutyl]amino}carbonyl)-3-methylbutylcarbamate] was run?
The value was 9.63%.

And the “Protection” value ([1]; listed as EXAMPLE 6 B)?
The value was 4.91%.

And the “Protection” value ([1]; listed as Z-Leu-Leu-H)?
Its value is “not active”.

What about the IC50 [2] of the same compound?
Its IC50 is 1750 ± 340 nM.
